Assay results from PubChem BioAssay AID330 (DTP/NCI, 2004).
“And” between values parts separate entries of the source, which are not always exact repeats. Equal entries are not always repeated. Toxic doses and inconclusive results are not listed.

Test system: P388 leukemia ip, CD2F1 mice, survival T/C
Experiment: NCI In Vivo Anticancer Drug Screen. Data for tumor model P388 Leukemia (intraperitoneal) in CD2F1 (CDF1) mice
Conditions: endpoint: median survival time, higher = longer survival
Procedure, shortened: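 Mice carrying the transplanted tumor received test compound or vehicle. Survival was recorded in each group, and the value is the treated-group measurement divided by that of the vehicle-treated control group.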

[1] = dose: 50.0 mg/kg/injection, schedule: Q01DX009 (ip), vehicle: saline with Tween-80
[2] = dose: 100.0 mg/kg/injection, schedule: Q01DX009 (ip), vehicle: saline with Tween-80
[3] = dose: 200.0 mg/kg/injection, schedule: Q01DX009 (ip), vehicle: saline with Tween-80
[4] = dose: 60.0 mg/kg/injection, schedule: Q01DX005 (ip), vehicle: saline with Tween-80
[5] = dose: 120.0 mg/kg/injection, schedule: Q01DX005 (ip), vehicle: saline with Tween-80
[6] = dose: 240.0 mg/kg/injection, schedule: Q01DX005 (ip), vehicle: saline with Tween-80

COc1cc2cc3c4cc(OC)c(OC)cc4cc[n+]3c(C)c2cc1OC
T/C (dose: 25.0 mg/kg/injection, schedule: Q01DX009 (ip), vehicle: other): 155 % of control
T/C (dose: 50.0 mg/kg/injection, schedule: Q01DX009 (ip), vehicle: other): 152 % of control and 169 % of control and 178 % of control
T/C (dose: 50.0 mg/kg/injection, schedule: Q01DX009 (ip), vehicle: saline sonified): 109 % of control
T/C (dose: 50.0 mg/kg/injection, schedule: Q04DX003 (ip), vehicle: other): 156 % of control and 158 % of control
T/C (dose: 100.0 mg/kg/injection, schedule: Q01DX009 (ip), vehicle: other): 172 % of control and 189 % of control and 198 % of control
T/C (dose: 100.0 mg/kg/injection, schedule: Q01DX009 (ip), vehicle: saline sonified): 109 % of control
T/C (dose: 100.0 mg/kg/injection, schedule: Q01DX009 (oral), vehicle: saline): 104 % of control
T/C (dose: 100.0 mg/kg/injection, schedule: Q04DX003 (ip), vehicle: other): 153 % of control and 169 % of control and 177 % of control
T/C (dose: 200.0 mg/kg/injection, schedule: Q01DX001 (oral), vehicle: saline): 104 % of control
T/C (dose: 200.0 mg/kg/injection, schedule: Q01DX009 (ip), vehicle: other): 153 % of control and 162 % of control
T/C (dose: 200.0 mg/kg/injection, schedule: Q01DX009 (ip), vehicle: saline sonified): 109 % of control
T/C (dose: 200.0 mg/kg/injection, schedule: Q01DX009 (oral), vehicle: saline): 104 % of control
T/C (dose: 200.0 mg/kg/injection, schedule: Q04DX003 (ip), vehicle: other): 166 % of control (2×) and 199 % of control
T/C (dose: 200.0 mg/kg/injection, schedule: Q04DX003 (oral), vehicle: saline): 104 % of control
T/C (dose: 400.0 mg/kg/injection, schedule: Q01DX001 (oral), vehicle: saline): 100 % of control
T/C (dose: 400.0 mg/kg/injection, schedule: Q01DX009 (ip), vehicle: other): 182 % of control
T/C (dose: 400.0 mg/kg/injection, schedule: Q01DX009 (ip), vehicle: saline sonified): 90 % of control
T/C (dose: 400.0 mg/kg/injection, schedule: Q01DX009 (oral), vehicle: saline): 100 % of control
T/C (dose: 400.0 mg/kg/injection, schedule: Q04DX003 (ip), vehicle: other): 161 % of control and 165 % of control and 191 % of control
T/C (dose: 400.0 mg/kg/injection, schedule: Q04DX003 (ip), vehicle: saline sonified): 150 % of control
T/C (dose: 400.0 mg/kg/injection, schedule: Q04DX003 (oral), vehicle: saline): 104 % of control
T/C (dose: 800.0 mg/kg/injection, schedule: Q01DX001 (oral), vehicle: saline): 104 % of control
T/C (dose: 800.0 mg/kg/injection, schedule: Q04DX003 (oral), vehicle: saline): 109 % of control

O=C(O)Cc1sc(-c2ccccc2)nc1-c1ccc(Cl)cc1
T/C [1]: 114 % of control
T/C [2]: 110 % of control
T/C [3]: 112 % of control

C1CC2CCC(N3CCCC3)C(C1)C21OCCO1 (stereo not given)
T/C [4]: 93 % of control
T/C [5]: 92 % of control

CCc1ncc(CO)n1Cc1cccc2ccccc12
T/C [1]: 100 % of control
T/C [2]: 102 % of control
T/C [3]: 103 % of control

Cc1c(-c2ccc(Cl)cc2)n[nH]c1-c1[nH]nc(-c2ccc(Cl)cc2)c1C
T/C [4]: 105 % of control
T/C [5]: 105 % of control
T/C [6]: 94 % of control

[N-]=[N+]=NC(=O)c1cnn(Cc2ccccc2)c1N
T/C (dose: 100.0 mg/kg/injection, schedule: Q01DX001 (ip), vehicle: saline with Tween-80): 103 % of control
T/C (dose: 200.0 mg/kg/injection, schedule: Q01DX001 (ip), vehicle: saline with Tween-80): 101 % of control

CNCc1nc2sc3c(c2c(=O)[nH]1)CCCC3
T/C [1]: 97 % of control
T/C [2]: 105 % of control
T/C [3]: 102 % of control

CC(=O)NC(Cc1ccsc1)C(=O)O (stereo not given)
T/C (dose: 50.0 mg/kg/injection, schedule: Q01DX009 (ip), vehicle: saline): 108 % of control
T/C (dose: 100.0 mg/kg/injection, schedule: Q01DX009 (ip), vehicle: saline): 92 % of control
T/C (dose: 200.0 mg/kg/injection, schedule: Q01DX009 (ip), vehicle: saline): 99 % of control

O=[N+]([O-])c1ccc(S(=O)(=O)OI(O)c2ccccc2)cc1
T/C (dose: 25.0 mg/kg/injection, schedule: Q01DX009 (ip), vehicle: water): 104 % of control and 105 % of control
T/C (dose: 50.0 mg/kg/injection, schedule: Q01DX009 (ip), vehicle: water): 98 % of control and 120 % of control and 96 % of control
T/C (dose: 100.0 mg/kg/injection, schedule: Q01DX009 (ip), vehicle: water): 100 % of control and 101 % of control and 91 % of control

O=C(/C(=C(/[O-])C(F)(F)F)[n+]1cccc2ccccc21)C(F)(F)F
T/C [4]: 104 % of control
T/C [5]: 91 % of control
T/C [6]: 99 % of control

O=C(O)c1cccc2cccc(-c3c4ccc(=O)c(O)c-4oc4c(O)c(O)ccc34)c12
T/C [2]: 109 % of control
T/C [3]: 113 % of control

Cn1c(=O)[nH]c(=O)c2nc(-c3ccc(Cl)cc3)cnc21
T/C (dose: 100.0 mg/kg/injection, schedule: Q04DX002 (ip), vehicle: saline with Tween-80): 94 % of control
T/C (dose: 200.0 mg/kg/injection, schedule: Q04DX002 (ip), vehicle: saline with Tween-80): 97 % of control
T/C (dose: 400.0 mg/kg/injection, schedule: Q04DX002 (ip), vehicle: saline with Tween-80): 97 % of control

Cn1c(-c2ccc(Cl)cc2)cc2cc(CN3C(=O)c4ccccc4C3=O)ccc21
T/C (dose: 25.0 mg/kg/injection, schedule: Q04DX003 (ip), vehicle: Klucel (hydroxypropylcellulose) (HPC)): 95 % of control
T/C (dose: 50.0 mg/kg/injection, schedule: Q04DX003 (ip), vehicle: Klucel (hydroxypropylcellulose) (HPC)): 96 % of control
T/C (dose: 100.0 mg/kg/injection, schedule: Q04DX003 (ip), vehicle: Klucel (hydroxypropylcellulose) (HPC)): 87 % of control and 88 % of control
T/C (dose: 400.0 mg/kg/injection, schedule: Q04DX003 (ip), vehicle: Klucel (hydroxypropylcellulose) (HPC)): 87 % of control

CC(C)CN1C(=O)C2C3CCC(O3)C2C1=O (stereo not given)
T/C [4]: 91 % of control
T/C [5]: 91 % of control
T/C [6]: 91 % of control

CCOC(=O)C(N=Nc1nn[nH]n1)c1ncn[nH]1 (stereo not given)
T/C (dose: 50.0 mg/kg/injection, schedule: Q01DX001 (ip), vehicle: Klucel (hydroxypropylcellulose) (HPC)): 98 % of control
T/C (dose: 100.0 mg/kg/injection, schedule: Q01DX001 (ip), vehicle: Klucel (hydroxypropylcellulose) (HPC)): 98 % of control
T/C (dose: 200.0 mg/kg/injection, schedule: Q01DX001 (ip), vehicle: Klucel (hydroxypropylcellulose) (HPC)): 91 % of control

CCc1ccc(/C=C/C(=O)C(C)CN(C)C)cc1 (stereo not given)
T/C (dose: 60.0 mg/kg/injection, schedule: Q01DX005 (ip), vehicle: saline): 105 % of control
T/C (dose: 120.0 mg/kg/injection, schedule: Q01DX005 (ip), vehicle: saline): 118 % of control

[O-][n+]1c(-c2ccccc2)c(Cl)c(-c2ccccc2)n1O
T/C (dose: 1.5 mg/kg/injection, schedule: Q01DX005 (ip), vehicle: Klucel + Tween-80): 99 % of control
T/C (dose: 3.0 mg/kg/injection, schedule: Q01DX005 (ip), vehicle: Klucel + Tween-80): 100 % of control
T/C (dose: 6.0 mg/kg/injection, schedule: Q01DX005 (ip), vehicle: Klucel + Tween-80): 96 % of control
T/C (dose: 60.0 mg/kg/injection, schedule: Q01DX005 (ip), vehicle: Klucel + Tween-80): 98 % of control

CNc1ccc(N=Nc2ccc3ncccc3c2)cc1
T/C (dose: 3.13 mg/kg/injection, schedule: Q01DX009 (ip), vehicle: saline with Tween-80): 104 % of control
T/C (dose: 6.25 mg/kg/injection, schedule: Q01DX009 (ip), vehicle: saline with Tween-80): 95 % of control
T/C (dose: 12.5 mg/kg/injection, schedule: Q01DX009 (ip), vehicle: saline with Tween-80): 90 % of control
T/C (dose: 25.0 mg/kg/injection, schedule: Q04DX003 (ip), vehicle: saline with Tween-80): 100 % of control
T/C (dose: 50.0 mg/kg/injection, schedule: Q04DX003 (ip), vehicle: saline with Tween-80): 90 % of control
T/C (dose: 100.0 mg/kg/injection, schedule: Q04DX003 (ip), vehicle: saline with Tween-80): 86 % of control
